The assay has as its target VMAT2 (human platelet homogenate) (Homo sapiens (Human), UniProt Q05940). Kind of assay: Human VMAT2 Ki, slightly modified competition binding procedure (Table 11).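 Also: competition binding with 90 min incubation at 25 °C, after which filter-retained radioligand was measured by scintillation counting.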 Particulars: 10 nM 3H-dihydrotetrabenazine.
Chain of VMAT2 (human platelet homogenate) (Q05940 whole entry): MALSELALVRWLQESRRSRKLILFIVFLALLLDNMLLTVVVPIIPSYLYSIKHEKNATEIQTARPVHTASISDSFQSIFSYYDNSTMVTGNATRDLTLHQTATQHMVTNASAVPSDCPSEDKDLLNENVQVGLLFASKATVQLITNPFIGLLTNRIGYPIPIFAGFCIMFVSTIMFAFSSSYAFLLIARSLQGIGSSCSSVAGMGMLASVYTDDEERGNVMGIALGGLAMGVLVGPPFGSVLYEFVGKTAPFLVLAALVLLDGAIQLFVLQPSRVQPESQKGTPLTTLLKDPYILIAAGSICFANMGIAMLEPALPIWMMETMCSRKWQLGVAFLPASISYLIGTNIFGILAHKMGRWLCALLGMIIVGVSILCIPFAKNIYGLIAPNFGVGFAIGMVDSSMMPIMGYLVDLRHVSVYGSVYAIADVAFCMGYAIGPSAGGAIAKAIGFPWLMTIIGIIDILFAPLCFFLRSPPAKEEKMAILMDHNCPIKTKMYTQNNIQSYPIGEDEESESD
Method: Following incubation at 25° C. for 90 minutes, bound radioligand was collected by rapid filtration onto GF/B glass fiber filters using a Unifilter-96 Harvester (PerkinElmer). Filter plates were pre-treated with 0.1% polyethylenimine and allowed to dry overnight, and following harvesting the filter plates were washed with 800 d VMAT2 binding buffer. Bound radioligand was quantified by scintillation counting using a Topcount NXT (PerkinElmer).
`COc1cc2c(cc1OC)[C@H]1C[C@@H](COC(=O)[C@@H]3CC(=O)NC(=O)N3)[C@H](CC(C)C)CN1CC2` [Compound 2-31, [(2R,3S,11bR)-9,10-dimethoxy-3-(2-methylpropyl)-1H,2H,3H,4H,6H,7H,11bH-pyrido[2,1-a]isoquinolin-2-yl]methyl (4S)-2,6-dioxo-1,3-diazinane-4-carboxylate]: the Ki – broadly, the dissociation constant of the complex between target and ligand, obtained from inhibition or displacement – is below 10 nM.
The figure for `CCN(CC)CCC(=O)OC[C@@H]1C[C@@H]2c3cc(OC)c(OC)cc3CCN2C[C@H]1CC(C)C` [Compound 2-32, [(2R,3S,11bR)-9,10-dimethoxy-3-(2-methylpropyl)-1H,2H,3H,4H,6H,7H,11bH-pyrido[2,1-a]isoquinolin-2-yl]methyl 3-(diethylamino)propanoate] is below 10 nM; for `COc1cc2c(cc1OC)[C@H]1C[C@@H](COC(=O)C[C@@H]3NC(=O)NC3=O)[C@H](CC(C)C)CN1CC2` [Compound 2-33, [(2R,3S,11bR)-9,10-dimethoxy-3-(2-methylpropyl)-1H,2H,3H,4H,6H,7H,11bH-pyrido[2,1-a]isoquinolin-2-yl]methyl 2-[(4S)-2,5-dioxoimidazolidin-4-yl]acetate] it is 10 to 500 nM.
Compound `CCCCCC(=O)OC[C@@H]1C[C@@H]2c3cc(OC)c(OC)cc3CCN2C[C@H]1CC(C)C` [Compound 2-34, [(2R,3S,11bR)-9,10-dimethoxy-3-(2-methylpropyl)-1H,2H,3H,4H,6H,7H,11bH-pyrido[2,1-a]isoquinolin-2-yl]methyl hexanoate] registered a Ki below 10 nM.
The figure for `COc1cc2c(cc1OC)[C@H]1C[C@@H](COC(=O)CS(=O)(=O)O)[C@H](CC(C)C)CN1CC2` [Compound 2-35, 2-{[(2R,3S,11bR)-9,10-dimethoxy-3-(2-methylpropyl)-1H,2H,3H,4H,6H,7H,11bH-pyrido[2,1-a]isoquinolin-2-yl]methoxy}-2-oxoethane-1-sulfonic acid] is above 500 nM; for `COc1cc2c(cc1OC)[C@H]1C[C@@H](COC(=O)CCCN(C)C)[C@H](CC(C)C)CN1CC2` [Compound 2-36, [(2R,3S,11bR)-9,10-dimethoxy-3-(2-methylpropyl)-1H,2H,3H,4H,6H,7H,11bH-pyrido[2,1-a]isoquinolin-2-yl]methyl 4-(dimethylamino)butanoate] it is below 10 nM; for `COc1cc2c(cc1OC)[C@H]1C[C@@H](COC(=O)C3CCCN(S(C)(=O)=O)C3)[C@H](CC(C)C)CN1CC2` (stereo partly drawn) [Compound 2-37, [(2R,3S,11bR)-9,10-dimethoxy-3-(2-methylpropyl)-1H,2H,3H,4H,6H,7H,11bH-pyrido[2,1-a]isoquinolin-2-yl]methyl 1-methanesulfonylpiperidine-3-carboxylate] it is 10 to 500 nM.
The figure for `COc1cc2c(cc1OC)[C@H]1C[C@@H](COC(=O)C3C(C)(C)C3(C)C)[C@H](CC(C)C)CN1CC2` [Compound 2-38, [(2R,3S,11bR)-9,10-dimethoxy-3-(2-methylpropyl)-1H,2H,3H,4H,6H,7H,11bH-pyrido[2,1-a]isoquinolin-2-yl]methyl 2,2,3,3-tetramethylcyclopropane-1-carboxylate] is 10 to 500 nM.
The figure for `COc1cc2c(cc1OC)[C@H]1C[C@@H](COC(=O)CCn3c(=O)oc4ccccc43)[C@H](CC(C)C)CN1CC2` [Compound 2-39, [(2R,3S,11bR)-9,10-dimethoxy-3-(2-methylpropyl)-1H,2H,3H,4H,6H,7H,11bH-pyrido[2,1-a]isoquinolin-2-yl]methyl 3-(2-oxo-2,3-dihydro-1,3-benzoxazol-3-yl)propanoate] is below 10 nM; for `COc1cc2c(cc1OC)[C@H]1C[C@@H](COC(=O)CC(=O)O)[C@H](CC(C)C)CN1CC2` [Compound 3-2, 3-{[(2R,3S,11bR)-9,10-dimethoxy-3-(2-methylpropyl)-1H,2H,3H,4H,6H,7H,11bH-pyrido[2,1-a]isoquinolin-2-yl]methoxy}-3-oxopropanoic acid] it is below 10 nM.
As to `COc1cc2c(cc1OC)[C@H]1C[C@@H](COC(=O)C3CCCCC3C(=O)O)[C@H](CC(C)C)CN1CC2` (stereo partly drawn) [Compound 3-5, 2-({[(2R,3S,11bR)-9,10-dimethoxy-3-(2-methylpropyl)-1H,2H,3H,4H,6H,7H,11bH-pyrido[2,1-a]isoquinolin-2-yl]methoxy}carbonyl)cyclohexane-1-carboxylic acid], the Ki is 10 to 500 nM.
`COc1cc2c(cc1OC)[C@H]1C[C@@H](COC(=O)[C@@H](N)Cc3ccccc3)[C@H](CC(C)C)CN1CC2` [Compound 4-2, [(2R,3S,11bR)-9,10-dimethoxy-3-(2-methylpropyl)-1H,2H,3H,4H,6H,7H,11bH-pyrido[2,1-a]isoquinolin-2-yl]methyl (2S)-2-amino-3-phenylpropanoate] came in with a Ki below 10 nM.
The same measure for `COc1cc2c(cc1OC)[C@H]1C[C@@H](COC(=O)[C@@H]3COCCN3)[C@H](CC(C)C)CN1CC2` [Compound 4-3, [(2R,3S,11bR)-9,10-dimethoxy-3-(2-methylpropyl)-1H,2H,3H,4H,6H,7H,11bH-pyrido[2,1-a]isoquinolin-2-yl]methyl (3S)-morpholine-3-carboxylate]: 10 to 500 nM.
The figure for `COc1cc2c(cc1OC)[C@H]1C[C@@H](COC(=O)[C@@H]3CCCC[C@H]3N)[C@H](CC(C)C)CN1CC2` [Compound 4-4, [(2R,3S,11bR)-9,10-dimethoxy-3-(2-methylpropyl)-1H,2H,3H,4H,6H,7H,11bH-pyrido[2,1-a]isoquinolin-2-yl]methyl (1R,2R)-2-aminocyclohexane-1-carboxylate] is below 10 nM.
The same measure for `COc1cc2c(cc1OC)[C@H]1C[C@@H](COC(=O)C3NCc4ccccc43)[C@H](CC(C)C)CN1CC2` (stereo partly drawn) [Compound 4-6, [(2R,3S,11bR)-9,10-dimethoxy-3-(2-methylpropyl)-1H,2H,3H,4H,6H,7H,11bH-pyrido[2,1-a]isoquinolin-2-yl]methyl 2,3-dihydro-1H-isoindole-1-carboxylate]: 10 to 500 nM; for `COc1cc2c(cc1OC)[C@H]1C[C@@H](COC(=O)C3CCCC3N)[C@H](CC(C)C)CN1CC2` (stereo partly drawn) [Compound 4-11, [(2R,3S,11bR)-9,10-dimethoxy-3-(2-methylpropyl)-1H,2H,3H,4H,6H,7H,11bH-pyrido[2,1-a]isoquinolin-2-yl]methyl 2-aminocyclopentane-1-carboxylate]: 10 to 500 nM; for `COc1cc2c(cc1OC)[C@H]1CC(COC(=O)[C@@H](N)C(C)C)[C@H](CC(C)C)CN1CC2` (stereo partly drawn) [Compound 4-12, [(3S,11bR)-9,10-dimethoxy-3-(2-methylpropyl)-1H,2H,3H,4H,6H,7H,11bH-pyrido[2,1-a]isoquinolin-2-yl]methyl (2S)-2-amino-3-methylbutanoate]: below 10 nM.
`COc1cc2c(cc1OC)[C@H]1C[C@@H](COC(=O)CC3(N)CCCCC3)[C@H](CC(C)C)CN1CC2` [Compound 4-14, [(2R,3S,11bR)-9,10-dimethoxy-3-(2-methylpropyl)-1H,2H,3H,4H,6H,7H,11bH-pyrido[2,1-a]isoquinolin-2-yl]methyl 2-(1-aminocyclohexyl)acetate] came in with a Ki below 10 nM.
The same measure for `COc1cc2c(cc1OC)[C@H]1C[C@@H](COC(=O)CC(N)C(C)C)[C@H](CC(C)C)CN1CC2` (stereo partly drawn) [Compound 4-17, [(2R,3S,11bR)-9,10-dimethoxy-3-(2-methylpropyl)-1H,2H,3H,4H,6H,7H,11bH-pyrido[2,1-a]isoquinolin-2-yl]methyl 3-amino-4-methylpentanoate]: below 10 nM.
The same measure for `COc1cc2c(cc1OC)[C@H]1C[C@@H](COC(=O)c3ccc(CN)cc3)[C@H](CC(C)C)CN1CC2` [Compound 4-18, [(2R,3S,11bR)-9,10-dimethoxy-3-(2-methylpropyl)-1H,2H,3H,4H,6H,7H,11bH-pyrido[2,1-a]isoquinolin-2-yl]methyl 4-(aminomethyl)benzoate]: 10 to 500 nM.
The figure for `COc1cc2c(cc1OC)[C@H]1C[C@@H](COC(=O)C(N)c3ccccc3OC)[C@H](CC(C)C)CN1CC2` (stereo partly drawn) [Compound 4-19, [(2R,3S,11bR)-9,10-dimethoxy-3-(2-methylpropyl)-1H,2H,3H,4H,6H,7H,11bH-pyrido[2,1-a]isoquinolin-2-yl]methyl 2-amino-2-(2-methoxyphenyl)acetate] is 10 to 500 nM; for `COc1cc2c(cc1OC)[C@H]1C[C@@H](COC(=O)C3CCCNC3)[C@H](CC(C)C)CN1CC2` (stereo partly drawn) [Compound 4-20, [(2R,3S,11bR)-9,10-dimethoxy-3-(2-methylpropyl)-1H,2H,3H,4H,6H,7H,11bH-pyrido[2,1-a]isoquinolin-2-yl]methyl piperidine-3-carboxylate] it is below 10 nM; for `COc1cc2c(cc1OC)[C@H]1C[C@@H](COC(=O)C3NCCc4ccccc43)[C@H](CC(C)C)CN1CC2` (stereo partly drawn) [Compound 4-21, [(2R,3S,11bR)-9,10-dimethoxy-3-(2-methylpropyl)-1H,2H,3H,4H,6H,7H,11bH-pyrido[2,1-a]isoquinolin-2-yl]methyl 1,2,3,4-tetrahydroisoquinoline-1-carboxylate] it is 10 to 500 nM.
The compound `COc1cc2c(cc1OC)[C@H]1C[C@@H](COC(=O)C[C@H]3CCCN3)[C@H](CC(C)C)CN1CC2` [Compound 4-23, [(2R,3S,11bR)-9,10-dimethoxy-3-(2-methylpropyl)-1H,2H,3H,4H,6H,7H,11bH-pyrido[2,1-a]isoquinolin-2-yl]methyl 2-[(2R)-pyrrolidin-2-yl]acetate] had an inhibitory constant (Ki) below 10 nM.
The compound `COc1cc2c(cc1OC)[C@H]1C[C@@H](COC(=O)CCN)[C@H](CC(C)C)CN1CC2` [Compound 4-24, [(2R,3S,11bR)-9,10-dimethoxy-3-(2-methylpropyl)-1H,2H,3H,4H,6H,7H,11bH-pyrido[2,1-a]isoquinolin-2-yl]methyl 3-aminopropanoate] yielded a Ki below 10 nM.
The same measure for `COc1cc2c(cc1OC)[C@H]1C[C@@H](COC(=O)[C@H]3CCCC[C@@H]3N)[C@H](CC(C)C)CN1CC2` [Compound 4-25, [(2R,3S,11bR)-9,10-dimethoxy-3-(2-methylpropyl)-1H,2H,3H,4H,6H,7H,11bH-pyrido[2,1-a]isoquinolin-2-yl]methyl (1S,2S)-2-aminocyclohexane-1-carboxylate]: 10 to 500 nM; for `COc1cc2c(cc1OC)[C@H]1C[C@@H](COC(=O)C3CNCCO3)[C@H](CC(C)C)CN1CC2` (stereo partly drawn) [Compound 4-27, [(2R,3S,11bR)-9,10-dimethoxy-3-(2-methylpropyl)-1H,2H,3H,4H,6H,7H,11bH-pyrido[2,1-a]isoquinolin-2-yl]methyl morpholine-2-carboxylate]: below 10 nM.

(Values after patent publication US11053242B2, “[9,10-dimethoxy-3-(2-methylpropyl)-1H,2H,3H,4H,6H,7H,11BH-pyrido-[2,1-a]isoquinolin-2-yl]methanol and compounds, compositions and methods relating thereto” (Neurocrine Biosciences, Inc., priority 2015, dated 2021).)
